Measured values taken from patent US20200172529A1, “Chemical Compound, Pharmaceutical Composition Thereof, and Use and Application Thereof” (Beijing Hanmi Pharm. Co., Ltd., priority 2017, published 2020).
pIC50: −log10 of the molar value.

Experiments:
Type in all cases: biochemical
TYK2 kinase = molecular target: T1, TYK2 kinase (Homo sapiens, UniProt P29597); assay: Inhibition assay of TYK2 kinase activity (ADP-Glo Kinase Assay)
T1 construct: purchased Life Technologies PR8440C
Outline: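 Enzyme at 0.8 ng/mL (2-fold final) in 40 mM Tris-HCl pH 7.5, 20 mM MgCl2, 0.1 mg/mL BSA, 1 mM DTT, preincubated 10 min with compound (6 points, 10-fold dilutions from 10 μM). ATP plus polyE4Y1 then added for 60 min at room temperature. ADP-Glo luminescence read and IC50 derived.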

JAK1 kinase = JAK1 kinase (Homo sapiens, UniProt P23458); assay: Inhibition assay of JAK1 kinase activity (ADP-Glo Kinase Assay)
Source text: Inhibition assay of JAK1 kinase activity: the method in ADP-Glo™ Kinase Assay (Promega, V9102) was used to determine the inhibitory activity of the test compounds against JAK1 kinase.

SYK kinase = SYK kinase (Homo sapiens, UniProt P43405); assay: Inhibition assay of SYK kinase activity (ADP-Glo Kinase Assay)
Source text: Inhibition assay of SYK kinase activity: the method in ADP-Glo™ Kinase Assay (Promega, V9102) was used to determine the inhibitory activity of the test compounds against SYK kinase.

JAK2 kinase = JAK2 kinase (Homo sapiens, UniProt O60674); assay: Inhibition assay of JAK2 kinase activity (ADP-Glo Kinase Assay)
Source text: Inhibition assay of JAK2 kinase activity: the method in ADP-Glo™ Kinase Assay (Promega, V9102) was used to determine the inhibitory activity of the test compounds against JAK2 kinase.

JAK3 kinase = molecular target: T2, JAK3 kinase (Homo sapiens, UniProt P52333); assay: Inhibition assay of JAK3 kinase activity (ADP-Glo Kinase Assay)
T2 sequence (P52333 1-1124): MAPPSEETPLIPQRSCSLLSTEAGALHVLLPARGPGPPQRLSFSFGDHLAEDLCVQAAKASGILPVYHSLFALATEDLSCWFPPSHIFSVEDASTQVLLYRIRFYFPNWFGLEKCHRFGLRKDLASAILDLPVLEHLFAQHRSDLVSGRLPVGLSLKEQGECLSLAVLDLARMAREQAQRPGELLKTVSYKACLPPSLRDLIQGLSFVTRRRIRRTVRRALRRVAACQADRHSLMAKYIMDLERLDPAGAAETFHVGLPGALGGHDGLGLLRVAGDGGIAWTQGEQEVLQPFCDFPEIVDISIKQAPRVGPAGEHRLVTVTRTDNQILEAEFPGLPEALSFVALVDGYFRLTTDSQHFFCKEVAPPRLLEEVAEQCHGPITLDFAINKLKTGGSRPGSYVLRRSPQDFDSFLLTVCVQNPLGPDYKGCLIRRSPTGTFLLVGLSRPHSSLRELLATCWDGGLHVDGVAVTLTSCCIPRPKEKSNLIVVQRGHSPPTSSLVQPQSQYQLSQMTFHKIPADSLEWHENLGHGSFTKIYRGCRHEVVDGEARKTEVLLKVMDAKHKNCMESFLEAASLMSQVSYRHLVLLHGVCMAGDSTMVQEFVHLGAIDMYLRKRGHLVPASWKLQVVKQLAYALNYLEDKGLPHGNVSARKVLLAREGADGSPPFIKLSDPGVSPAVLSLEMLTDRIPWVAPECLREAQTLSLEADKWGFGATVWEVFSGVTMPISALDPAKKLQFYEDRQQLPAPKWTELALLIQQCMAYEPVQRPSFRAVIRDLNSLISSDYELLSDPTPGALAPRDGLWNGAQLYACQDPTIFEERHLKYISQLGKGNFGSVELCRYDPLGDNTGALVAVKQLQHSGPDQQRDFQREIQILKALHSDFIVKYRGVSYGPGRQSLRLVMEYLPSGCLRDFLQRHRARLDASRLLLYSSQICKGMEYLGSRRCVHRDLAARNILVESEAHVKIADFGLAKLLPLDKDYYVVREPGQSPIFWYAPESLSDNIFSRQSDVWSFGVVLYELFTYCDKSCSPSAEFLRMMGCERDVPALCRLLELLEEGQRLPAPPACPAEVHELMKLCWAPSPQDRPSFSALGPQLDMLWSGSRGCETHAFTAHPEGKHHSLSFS
Source text: Inhibition assay of JAK3 kinase activity: the method in ADP-Glo™ Kinase Assay (Promega, V9102) was used to determine the inhibitory activity of the test compounds against JAK3 kinase.

Chain of JAK1 kinase (P23458 whole entry): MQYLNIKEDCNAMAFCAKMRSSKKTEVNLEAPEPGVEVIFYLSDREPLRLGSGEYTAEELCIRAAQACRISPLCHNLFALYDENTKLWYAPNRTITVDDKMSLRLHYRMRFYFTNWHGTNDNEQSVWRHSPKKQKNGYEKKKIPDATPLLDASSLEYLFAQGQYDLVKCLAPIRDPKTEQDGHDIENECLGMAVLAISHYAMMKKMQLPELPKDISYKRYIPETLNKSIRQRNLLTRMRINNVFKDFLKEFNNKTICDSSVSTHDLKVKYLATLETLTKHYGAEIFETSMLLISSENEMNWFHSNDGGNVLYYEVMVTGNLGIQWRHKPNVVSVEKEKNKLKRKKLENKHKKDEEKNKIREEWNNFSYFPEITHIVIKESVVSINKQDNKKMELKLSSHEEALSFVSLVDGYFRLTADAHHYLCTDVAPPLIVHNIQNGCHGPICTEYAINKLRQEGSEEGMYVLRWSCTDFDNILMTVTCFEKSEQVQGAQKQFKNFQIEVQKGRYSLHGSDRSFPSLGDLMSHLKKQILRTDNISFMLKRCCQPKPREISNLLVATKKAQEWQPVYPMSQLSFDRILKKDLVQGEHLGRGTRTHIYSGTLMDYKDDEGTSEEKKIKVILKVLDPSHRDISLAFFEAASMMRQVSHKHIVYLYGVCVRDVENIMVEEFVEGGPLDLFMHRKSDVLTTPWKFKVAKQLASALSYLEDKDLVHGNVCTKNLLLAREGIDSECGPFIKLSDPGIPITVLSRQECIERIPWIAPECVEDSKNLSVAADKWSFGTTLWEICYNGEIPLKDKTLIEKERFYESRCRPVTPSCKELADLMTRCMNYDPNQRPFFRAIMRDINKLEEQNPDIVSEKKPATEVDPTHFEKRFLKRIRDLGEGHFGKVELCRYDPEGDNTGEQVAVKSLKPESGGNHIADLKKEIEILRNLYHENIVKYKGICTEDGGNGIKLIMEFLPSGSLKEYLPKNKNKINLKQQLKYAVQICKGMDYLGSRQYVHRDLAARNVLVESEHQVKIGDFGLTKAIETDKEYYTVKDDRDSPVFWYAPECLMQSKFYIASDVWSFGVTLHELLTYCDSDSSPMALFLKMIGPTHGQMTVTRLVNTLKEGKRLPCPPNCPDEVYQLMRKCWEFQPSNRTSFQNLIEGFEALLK
T1 sequence (P29597 whole entry): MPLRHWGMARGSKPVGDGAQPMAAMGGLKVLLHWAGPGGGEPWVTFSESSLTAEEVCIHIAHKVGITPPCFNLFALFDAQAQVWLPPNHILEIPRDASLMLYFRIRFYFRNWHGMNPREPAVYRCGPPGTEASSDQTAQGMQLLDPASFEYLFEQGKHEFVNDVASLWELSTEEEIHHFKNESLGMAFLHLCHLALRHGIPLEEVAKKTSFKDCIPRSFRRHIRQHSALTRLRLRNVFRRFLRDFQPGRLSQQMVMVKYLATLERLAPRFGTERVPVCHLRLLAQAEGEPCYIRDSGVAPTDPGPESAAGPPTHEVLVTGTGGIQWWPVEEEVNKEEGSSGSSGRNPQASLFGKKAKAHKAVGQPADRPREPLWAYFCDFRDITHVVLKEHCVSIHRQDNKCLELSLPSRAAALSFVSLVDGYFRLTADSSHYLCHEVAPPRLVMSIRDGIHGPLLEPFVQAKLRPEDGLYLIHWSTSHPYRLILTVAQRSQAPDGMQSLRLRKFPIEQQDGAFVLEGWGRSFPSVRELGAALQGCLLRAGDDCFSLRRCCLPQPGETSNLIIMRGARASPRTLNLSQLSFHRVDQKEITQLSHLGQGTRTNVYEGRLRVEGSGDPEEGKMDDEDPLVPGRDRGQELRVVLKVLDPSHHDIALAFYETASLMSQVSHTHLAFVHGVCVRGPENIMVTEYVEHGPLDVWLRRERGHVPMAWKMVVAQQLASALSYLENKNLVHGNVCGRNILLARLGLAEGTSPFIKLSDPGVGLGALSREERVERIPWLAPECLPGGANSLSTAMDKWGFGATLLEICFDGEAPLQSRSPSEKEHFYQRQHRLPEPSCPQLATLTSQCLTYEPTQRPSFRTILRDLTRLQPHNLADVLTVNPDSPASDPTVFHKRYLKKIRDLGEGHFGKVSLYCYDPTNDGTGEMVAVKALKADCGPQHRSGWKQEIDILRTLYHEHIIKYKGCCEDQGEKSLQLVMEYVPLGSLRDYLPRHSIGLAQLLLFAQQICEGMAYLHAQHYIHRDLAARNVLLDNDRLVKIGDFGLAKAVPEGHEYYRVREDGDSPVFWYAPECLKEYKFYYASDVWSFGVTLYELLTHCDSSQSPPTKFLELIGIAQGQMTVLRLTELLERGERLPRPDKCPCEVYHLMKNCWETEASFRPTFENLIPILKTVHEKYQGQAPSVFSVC
Chain of JAK2 kinase (O60674 whole entry): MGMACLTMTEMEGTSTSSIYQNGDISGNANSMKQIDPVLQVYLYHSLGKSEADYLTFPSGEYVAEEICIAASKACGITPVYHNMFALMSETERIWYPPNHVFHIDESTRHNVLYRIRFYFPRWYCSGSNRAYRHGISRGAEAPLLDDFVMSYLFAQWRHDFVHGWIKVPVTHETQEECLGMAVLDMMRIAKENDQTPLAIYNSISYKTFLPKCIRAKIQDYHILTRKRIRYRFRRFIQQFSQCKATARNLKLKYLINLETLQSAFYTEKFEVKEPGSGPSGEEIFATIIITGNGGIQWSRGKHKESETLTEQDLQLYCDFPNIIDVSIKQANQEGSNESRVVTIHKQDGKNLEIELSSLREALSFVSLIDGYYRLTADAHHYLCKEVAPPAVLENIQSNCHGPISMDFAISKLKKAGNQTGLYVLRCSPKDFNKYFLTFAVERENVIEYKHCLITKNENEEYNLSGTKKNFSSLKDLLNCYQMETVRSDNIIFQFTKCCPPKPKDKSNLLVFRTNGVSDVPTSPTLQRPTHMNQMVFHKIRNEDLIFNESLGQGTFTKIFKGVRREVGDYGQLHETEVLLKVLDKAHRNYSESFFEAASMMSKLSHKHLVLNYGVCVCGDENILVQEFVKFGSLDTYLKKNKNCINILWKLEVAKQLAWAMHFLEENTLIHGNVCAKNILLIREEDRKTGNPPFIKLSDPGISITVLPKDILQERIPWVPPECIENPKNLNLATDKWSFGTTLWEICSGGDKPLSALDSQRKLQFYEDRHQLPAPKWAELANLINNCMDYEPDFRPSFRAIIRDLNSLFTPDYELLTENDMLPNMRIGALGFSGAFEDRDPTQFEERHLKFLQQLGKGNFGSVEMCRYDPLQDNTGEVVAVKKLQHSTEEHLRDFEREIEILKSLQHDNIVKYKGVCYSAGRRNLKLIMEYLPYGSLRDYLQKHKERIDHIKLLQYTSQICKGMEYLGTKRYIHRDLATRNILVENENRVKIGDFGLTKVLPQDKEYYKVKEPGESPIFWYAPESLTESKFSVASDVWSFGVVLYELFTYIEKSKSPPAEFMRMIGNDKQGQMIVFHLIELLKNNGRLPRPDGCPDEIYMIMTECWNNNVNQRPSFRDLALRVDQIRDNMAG

Row | SMILES | pIC50 (TYK2 kinase) | pIC50 (JAK1 kinase) | pIC50 (SYK kinase) | pIC50 (JAK2 kinase) | pIC50 (JAK3 kinase)
1 | NC(=O)c1cnc(Nc2ccc3c(c2)NCC(O)CO3)nc1NC1CCC1 (stereo not shown) [Example 1, 4-(cyclobutylamino)-2-((3-hydroxy-2,3,4,5-tetrahydro-benzo[b][1,4]oxazepin-7-yl)amino)pyrimidin-5-carboxamide] | > 8.00 | > 8.00 | 7.00 to 8.00 | – | –
2 | CCCCNc1nc(Nc2ccc3c(c2)NC[C@H](O)CO3)ncc1C(N)=O [Example 74, 4-(butylamino)-2-(((S)-2,3,4,5-tetrahydro-3-hydroxybenzo[b][1,4]oxazepin-7-yl)amino)pyrimidin-5-carboxamide] | > 8.00 | > 8.00 | – | > 8.00 | > 8.00
3 | CCCCCNc1nc(Nc2ccc3c(c2)NC[C@H](O)CO3)ncc1C(N)=O [Example 75, 4-(pentylamino)-2-(((S)-2,3,4,5-tetrahydro-3-hydroxybenzo[b][1,4]oxazepin-7-yl)amino)pyrimidin-5-carboxamide] | > 8.00 | > 8.00 | – | > 8.00 | > 8.00
4 | CCCO[C@H]1CNc2cc(Nc3ncc(C(N)=O)c(NC4CC4)n3)ccc2OC1 [Example 82, 4-(cyclopropylamino)-2-(((S)-2,3,4,5-tetrahydro-3-propoxybenzo[b][1,4]oxazepin-7-yl)amino)pyrimidin-5-carboxamide] | > 8.00 | > 8.00 | – | 7.00 to 8.00 | 7.00 to 8.00
5 | CO[C@H]1CNc2cc(Nc3ncc(C(N)=O)c(NC4C5CC6CC4CC(O)(C6)C5)n3)ccc2OC1 (stereo partly drawn) [Example 90, 4-((5-hydroxyadamantan-2-yl)amino)-2-(((S)-2,3,4,5-tetrahydro-3-methoxybenzo[b][1,4]oxazepin-7-yl)amino)pyrimidin-5-carboxamide] | > 8.00 | – | 7.00 to 8.00 | > 8.00 | > 8.00
6 | CO[C@H]1CNc2cc(Nc3ncc(C(N)=O)c(NC4C5CC6CC4CC(OC)(C6)C5)n3)ccc2OC1 (stereo partly drawn) [Example 93, 4-((5-methoxyadamantan-2-yl)amino)-2-(((S)-2,3,4,5-tetrahydro-3-methoxybenzo[b][1,4]oxazepin-7-yl)amino)pyrimidin-5-carboxamide] | > 8.00 | > 8.00 | – | > 8.00 | > 8.00
7 | NC(=O)c1cnc(Nc2ccc3c(c2)NC[C@H](OCC2CCCCO2)CO3)nc1NC1CC1 (stereo partly drawn) [Example 99, 4-(cyclopropylamino)-2-(((S)-2,3,4,5-tetrahydro-3-(tetrahydro-2H-2-pyranylmethoxy)benzo[b][1,4]oxazepin-7-yl)amino)pyrimidin-5-carboxamide] | > 8.00 | > 8.00 | 7.00 to 8.00 | – | –
8 | COCCCCO[C@H]1CNc2cc(Nc3ncc(C(N)=O)c(NC4CC4)n3)ccc2OC1 [Example 100, 4-(cyclopropylamino)-2-(((S)-2,3,4,5-tetrahydro-3-(4-methoxybutoxy)benzo[b][1,4]oxazepin-7-yl)amino)pyrimidin-5-carboxamide] | > 8.00 | > 8.00 | 7.00 to 8.00 | – | –
9 | NC(=O)c1cnc(Nc2ccc3c(c2)NC[C@H](OCC2CCCOC2)CO3)nc1NC1CC1 (stereo partly drawn) [Example 102, 4-(cyclopropylamino)-2-(((S)-2,3,4,5-tetrahydro-3-((tetrahydropyran-3-yl)methoxy)benzo[b][1,4]oxazepin-7-yl)amino)pyrimidin-5-carboxamide] | > 8.00 | > 8.00 | – | 7.00 to 8.00 | 7.00 to 8.00
10 | CC(C)(C)OCCO[C@H]1CNc2cc(Nc3ncc(C(N)=O)c(NC4CC4)n3)ccc2OC1 [Example 103, 4-(cyclopropylamino)-2-(((S)-2,3,4,5-tetrahydro-3-(2-(tert-butoxy)ethoxy)benzo[b][1,4]oxazepin-7-yl)amino)pyrimidin-5-carboxamide] | > 8.00 | > 8.00 | – | 7.00 to 8.00 | 7.00 to 8.00
